Measured values: patent US20120122870A1, “Treatment Of Ischemia-Reperfusion Injury” (MUSC FOUNDATION FOR RESEARCH DEVELOPMENT, priority 2009, published 2012)
“Also recorded” adds a separate entry of the source.

Columns and labels:
[1] = tested on: kidney damage after severe ischemia-reperfusion; test: Kidney histology (H&E) after severe kidney IR; format: in vivo, mice; details: 4 and 48 hours post ischemia and reperfusion
Experimental: Kidneys from the animals described with respect to FIG. 4 were sectioned and stained with H&E for histological evaluation. […] Kidney sections were quantitatively scored on a scale of 1 to 3 for five parameters (tubule cell swelling, tubular dilatation, edema, epithelial necrosis and tubular casts) that were added to generate a total score (FIG. 6).

[2] = tested on: hepatic warm IR in C57BL/6 mice; test: Liver necrosis (H+E, image analysis) after hepatic warm IR; format: in vivo
Experimental: Warm IR upregulates SK in the liver. IR injury to the liver occurs in LT. Since SK is associated with inflammatory processes, we investigated whether IR affects SK expression in the liver. Male C57BL/6 mice (8-9 weeks) were gavaged with ABC294640 (ABC, 50 mg/kg) or an equal volume of vehicle (0.375% Tween-80 in phosphate buffer) 1 h prior to surgery. Under ether anesthesia, hepatic ischemia was induced by clamping the hepatic artery and portal vein to the upper three lobes of the liver (i.e., about 70% of total liver). One hour later, the ischemic liver was reperfused by opening the vascular clamp. Livers were collected 6 h later under pentobarbital anesthesia (80 mg/kg, i.p.) and SK was detected immunohistochemically. […] SK expression increased markedly after hepatic IR (FIG. 9 middle). Upregulation of SK occurred most overtly in hepatocytes in the midzonal regions of the liver lobule.
ABC294640 prevents hepatic warm IR-induced cell death. SK increased after hepatic IR, therefore, we investigated whether ABC294640 protects against hepatic IR injury. […] Necrotic areas became panlobular after 1 h-ischemia plus 6 h of reperfusion (FIG. 10, middle). Necrotic area, quantified by computerized image analysis of 10 random fields per slide, accounted for 68% of the liver tissue (FIG. 11A). […] Hepatic apoptosis was evaluated by terminal deoxylnucleotidyl transferase-mediated deoxyuridine triphosphate biotin nick end labeling (TUNEL) (FIG. 11B). […]
Histology: Under pentobarbital anesthesia (50 mg/kg, i.p.), livers were rinsed with 10 ml normal saline and perfusion-fixed with 4% paraformaldehyde in phosphate buffer, embedded in paraffin, and sections were stained with hematoxylin-eosin (H+E). Necrotic areas in sections were quantified by image analysis using an Image-1/AT image acquisition and analysis system (Universal Imaging Corp., West Chester, Pa.) incorporating an Axioskop 50 microscope (Carl Zeiss, Inc., Thornwood, NY) and a 10× objective lens.

[3] = tested on: non-heart-beating liver transplantation in Lewis rats; test: Non-heart-beating donor liver transplantation, graft necrosis (H+E); format: in vivo; details: 30-min aorta clamping, 4-hour cold storage; grafts harvested 18 h after implantation
From the text: ABC294640 improves the outcome of non-heart-beating liver transplantation. The severe donor organ shortage could be reduced by the use of marginal livers for transplantation. Currently only livers from brain-dead, heart-beating donors (HBD) are used for transplantation since liver grafts from non-heart-beating donors frequently fail after transplantation. Development of a method to improve survival of grafts from NHBD is critical to expand the usable liver donor pool. Grafts from NHBD experience longer warm ischemia before liver retrieval, which likely upregulates SK to a higher extent compared to those from HBD. Therefore, we performed a pilot study to test if ABC294640 improves the outcome of non-heart-beating liver transplantation. Livers were explanted from Lewis rats after 30-min of aorta clamping to mimic non-heart-beating donation and implanted after 4-hour storage in UW solution at 0-1° C. […] In cold-stored, untransplanted livers from NHBD, although some cell swelling was observed, no necrosis occurred (FIG. 19, upper right). After transplantation of livers from HBD, small focal necrosis occurred (FIG. 19, middle left). […] Necrotic areas in sections were quantified by image analysis using an Image-1/AT image acquisition and analysis system (Universal Imaging Corp., West Chester, Pa.) incorporating an Axioskop 50 microscope (Carl Zeiss, Inc., Thornwood, NY) and a 10× objective lens.

[4] = tested on: hepatic warm IR in mice; test: Serum ALT and total bilirubin after hepatic warm IR; format: in vivo
Experimental: Liver warm ischemia was induced as described above. Blood was collected at 6 h after reperfusion, and serum alanine aminotransferase (ALT) activity and bilirubin were measured. Before ischemia, serum ALT levels were 22 U/L. At 6 h after reperfusion, ALT levels increased to ˜19,000 U/L in livers exposed to 1 h-ischemia (FIG. 12A). Pretreatment of the animals with ABC294640 decreased ALT levels after IR to ˜1,600 U/L, which reflects a >90% decrease compared to livers without ABC294640 treatment (FIG. 12A). […] Bilirubin accumulates in the blood when liver function is poor. Serum total bilirubin was 0.26 mg/dL in mice subjected to the sham operation. Bilirubin increased 3-fold 6 h after reperfusion (FIG. 12B). […] Clinical chemistry: Blood samples were collected from the vena cava at various times, and ALT and bilirubin were measured enzymatically using analytic kits from Pointe Scientific.

[5] = 1 h-ischemia plus 6 h-reperfusion

O=C(NCc1ccncc1)C12CC3CC(C1)CC(c1ccc(Cl)cc1)(C3)C2 [ABC294640, 3-(4-chlorophenyl)-N-(pyridin-4-ylmethyl)adamantane-1-carboxamide]
kidney histological damage vs vehicle [1]: protects against microscopic damage; also recorded: much less damage | necrotic area of liver tissue ([2]; 50 mg/kg, 1 h-ischemia plus 6 h of reperfusion, image analysis of 10 random fields): ~7% | necrosis / cell death after hepatic IR (in words) [2, 5]: attenuates necrosis; also recorded: prevents cell death | attenuation of necrosis compared to vehicle-treated livers ([2]; 1 h-ischemia plus 6 h of reperfusion): ~90% | necrotic areas in transplanted livers from non-heart-beating donors [3]: substantially decreased; also recorded: attenuates necrosis | liver function / hepatic IR injury (in words) [4, 5]: markedly decreases hepatic IR injury; also recorded: improves liver function | decrease of ALT compared to livers without treatment ([4]; 1 h-ischemia, 6 h after reperfusion): > 90% | accumulation of serum total bilirubin ([4]; 6 h after reperfusion): almost completely reversed | serum ALT levels after IR ([4]; pretreatment 50 mg/kg, 1 h-ischemia, 6 h after reperfusion): ~1,600 U/L
